Experimental data as given in patent US7067694B2, “Halogen-substituted amino dicarboxylic acid derivatives as medicaments for treating cardiovascular diseases” (Bayer Aktiengesellschaft, priority 2001, dated 2006).

system: not given; experiment: not given; details: not given

Row | melting point [°C] | Structure (SMILES)
1 | > 250 | O=C(O)CCCCN(CCc1ccc(F)cc1OCc1ccc(C2CCCCC2)cc1)Cc1ccc(C(=O)O)cc1 [Example 1, 4-{[(4-carboxybutyl)(2-{2-[(4-cyclohexylbenzyl)oxy]-4-fluorophenyl}ethyl)amino]methyl}benzoic acid]

system: arteria saphena rings; experiment: Vasorelaxant effect in vitro (phenylephrine-contracted rabbit arteria saphena rings); assay type: cell-based, Rabbits; details: Oryctolagus cuniculus, contraction by phenylephrine, 37° C., 0.1% DMSO, read-out: IC50, concentration necessary to reduce the height of the contraction control value by 50%
Method: Vasorelaxant Effect in vitro
Rabbits are anesthetized or killed by intravenous injection of thiopental sodium (about 50 mg/kg) and exsanguinated. The arteria saphena is removed and divided into rings 3 mm wide. The individual rings are in each case mounted on a pair of hooks of triangular shape, open at the ends and made of special wire (Remanium®) having a diameter of 0.3 mm. Under pretension, each ring is introduced into a 5 ml organ bath containing carbogen-gassed Krebs-Henseleit solution at 37° C. with the following composition (mM): NaCl: […]; KCl: 4.8; CaCl2×2H2O: 1; MgSO4×7H2O: 1.4; KH2PO4: 1.2; NaHCO3: 25; glucose: 10; bovine serum albumin: 0.001%. The force of contraction is detected with Statham UC2 cells, amplified and digitized via A/D converters (DAS-1802 HC, Keithley Instruments, Munich) and recorded in parallel on chart recorders. Contractions are generated by adding phenylephrine.
After several (generally 4) control cycles, the substance to be investigated is added in each further run in increasing dosage, and the height of the contraction reached under the influence of the test substance is compared with the height of the contraction reached in the last preceding run. The concentration necessary to reduce the height of the control value by 50% (IC50) is calculated from this. The standard application volume is 5 μl. The DMSO content in the bath solution corresponds to 0.1%.

Row | Structure (SMILES) | IC50 [nM]
2 | O=C(O)CCCCN(CCc1ccc(F)cc1OCc1ccc(C2CCCCC2)cc1)Cc1ccc(C(=O)O)cc1 [Example 1, 4-{[(4-carboxybutyl)(2-{2-[(4-cyclohexylbenzyl)oxy]-4-fluorophenyl}ethyl)amino]methyl}benzoic acid] | 1.1
3 | O=C(O)CCCCN(CCc1cc(F)ccc1OCc1ccc(C2CCCCC2)cc1)Cc1ccc(C(=O)O)cc1 [Example 2] | 1.5
4 | O=C(O)CCCCN(CCc1cc(Cl)ccc1OCc1ccc(-c2ccc(Cl)cc2)cc1)Cc1ccc(C(=O)O)cc1 [Example 6] | 8.1

Continued by falling IC50, values first:

Row | IC50 [nM] | Structure (SMILES)
5 | 8.3 | COc1ccc(-c2ccc(COc3ccc(Cl)cc3CCN(CCCCC(=O)O)Cc3ccc(C(=O)O)cc3)c(Cl)c2)cc1 [Example 9]
6 | 1 | O=C(O)CCCCN(CCc1cc(Cl)ccc1OCc1ccc(-c2ccc(C(F)(F)F)cc2)cc1)Cc1ccc(C(=O)O)cc1 [Example 3]
